Laboratory results reported in the NIST ThermoML archive (doi:10.1021/je900387e).

Experiment: xn = mol fraction of the nth substance listed
Details: Liquid, Pycnometric method

Cn1ccnc1 [1-methylimidazole] + O=C=O
mass density [kg/m3]
Details | 332.4 K | 337.4 K
13050 kPa, x1 = 0.0102 | – | 568
13150 kPa, x1 = 0.0102 | – | 576
13270 kPa, x1 = 0.0102 | – | 584
13350 kPa, x1 = 0.0102 | 600 | –
13370 kPa, x1 = 0.0102 | – | 593
13490 kPa, x1 = 0.0102 | – | 601
13550 kPa, x1 = 0.0247 | 668 | –
13560 kPa, x1 = 0.0102 | 612 | –
13620 kPa, x1 = 0.0102 | – | 610
13730 kPa, x1 = 0.0247 | 675 | –
13770 kPa, x1 = 0.0102 | – | 619
13790 kPa, x1 = 0.0102 | 623 | –
13890 kPa, x1 = 0.0247 | 681 | –
13910 kPa, x1 = 0.0102 | – | 628
13960 kPa, x1 = 0.0247 | 684 | –
14040 kPa, x1 = 0.0102 | 636 | –
14080 kPa, x1 = 0.0102 | – | 638
14140 kPa, x1 = 0.0247 | 690 | –
14240 kPa, x1 = 0.0102 | – | 648
14320 kPa, x1 = 0.0102 | 649 | –
14330 kPa, x1 = 0.0247 | 696 | –
14430 kPa, x1 = 0.0102 | – | 658
14490 kPa, x1 = 0.0247 | – | 650
14520 kPa, x1 = 0.0247 | 703 | –
14560 kPa, x1 = 0.0247 | – | 653
14630 kPa, x1 = 0.0102 | – | 669
14640 kPa, x1 = 0.0102 | 663 | –
14660 kPa, x1 = 0.0247 | – | 658
14740 kPa, x1 = 0.0247 | 709 | –
14780 kPa, x1 = 0.0247 | – | 662
14850 kPa, x1 = 0.0102 | – | 680
14900 kPa, x1 = 0.0247 | – | 666
14970 kPa, x1 = 0.0247 | 716 | –
15020 kPa, x1 = 0.0247 | – | 671
15030 kPa, x1 = 0.0102 | 677 | –
15080 kPa, x1 = 0.0102 | – | 691
15140 kPa, x1 = 0.0247 | – | 675
15220 kPa, x1 = 0.0247 | 723 | –
15270 kPa, x1 = 0.0247 | – | 680
15350 kPa, x1 = 0.0102 | – | 703
15420 kPa, x1 = 0.0247 | – | 684
15450 kPa, x1 = 0.0487 | 779 | –
15480 kPa, x1 = 0.0102 | 692 | –
15480 kPa, x1 = 0.0247 | 730 | –
15560 kPa, x1 = 0.0247 | – | 689
15710 kPa, x1 = 0.0487 | 784 | –
15730 kPa, x1 = 0.0247 | – | 693
15740 kPa, x1 = 0.0102 | – | 719
15750 kPa, x1 = 0.0247 | 737 | –
15880 kPa, x1 = 0.0247 | – | 698
15920 kPa, x1 = 0.0487 | 789 | –
15960 kPa, x1 = 0.0247 | 742 | –
15970 kPa, x1 = 0.0102 | 707 | –
16050 kPa, x1 = 0.0247 | – | 703
16080 kPa, x1 = 0.0102 | – | 732
16130 kPa, x1 = 0.0487 | 794 | –
16190 kPa, x1 = 0.0247 | 747 | –
16230 kPa, x1 = 0.0247 | – | 708
16260 kPa, x1 = 0.0487 | 797 | –
16390 kPa, x1 = 0.0487 | 799 | –
16410 kPa, x1 = 0.0247 | – | 713
16430 kPa, x1 = 0.0247 | 752 | –
16450 kPa, x1 = 0.0102 | – | 745
16520 kPa, x1 = 0.0487 | 801 | –
16570 kPa, x1 = 0.0102 | 723 | –
16600 kPa, x1 = 0.0487 | – | 768
16610 kPa, x1 = 0.0247 | – | 717
16640 kPa, x1 = 0.0487 | – | 769
16650 kPa, x1 = 0.0487 | 804 | –
16720 kPa, x1 = 0.0247 | 758 | –
16730 kPa, x1 = 0.0487 | – | 770
16830 kPa, x1 = 0.0487 | 806 | –
16840 kPa, x1 = 0.0102 | – | 759
16850 kPa, x1 = 0.0487 | – | 773
16890 kPa, x1 = 0.0247 | – | 724
16910 kPa, x1 = 0.0247 | 762 | –
16960 kPa, x1 = 0.0487 | – | 775
16970 kPa, x1 = 0.0487 | 809 | –
17070 kPa, x1 = 0.0487 | – | 777
17090 kPa, x1 = 0.0247 | 766 | –
17130 kPa, x1 = 0.0487 | 811 | –
17170 kPa, x1 = 0.0487 | – | 780
17190 kPa, x1 = 0.0247 | – | 731
17260 kPa, x1 = 0.0102 | 740 | –
17260 kPa, x1 = 0.0487 | 814 | –
17290 kPa, x1 = 0.0487 | – | 782
17300 kPa, x1 = 0.0102 | – | 773
17300 kPa, x1 = 0.0247 | 770 | –
17410 kPa, x1 = 0.0487 | – | 784
17440 kPa, x1 = 0.0487 | 817 | –
17450 kPa, x1 = 0.0247 | – | 737
17510 kPa, x1 = 0.0247 | 774 | –
17520 kPa, x1 = 0.1024 | 890 | –
17560 kPa, x1 = 0.0487 | – | 787
17590 kPa, x1 = 0.0487 | 819 | –
17680 kPa, x1 = 0.0247 | – | 742
17680 kPa, x1 = 0.0487 | – | 789
17680 kPa, x1 = 0.1024 | 892 | –
17730 kPa, x1 = 0.1024 | 892 | –
17750 kPa, x1 = 0.0487 | 821 | –
17800 kPa, x1 = 0.0247 | 779 | –
17800 kPa, x1 = 0.1024 | 893 | –
17810 kPa, x1 = 0.0487 | – | 791
17820 kPa, x1 = 0.0102 | – | 788
17890 kPa, x1 = 0.1024 | 894 | –
17920 kPa, x1 = 0.0487 | 824 | –
17940 kPa, x1 = 0.0487 | – | 794
17960 kPa, x1 = 0.1024 | 895 | –
18040 kPa, x1 = 0.1024 | 896 | –
18060 kPa, x1 = 0.0102 | 757 | –
18060 kPa, x1 = 0.0247 | – | 749
18090 kPa, x1 = 0.0487 | – | 797
18090 kPa, x1 = 0.1024 | 896 | –
18120 kPa, x1 = 0.0487 | 827 | –
18150 kPa, x1 = 0.1024 | 897 | –
18200 kPa, x1 = 0.0102 | – | 798
18200 kPa, x1 = 0.1024 | 897 | –
18210 kPa, x1 = 0.0487 | – | 799
18250 kPa, x1 = 0.1024 | 898 | –
18280 kPa, x1 = 0.0487 | 829 | –
18310 kPa, x1 = 0.1024 | 899 | –
18350 kPa, x1 = 0.0487 | – | 800
18400 kPa, x1 = 0.1024 | 900 | –
18470 kPa, x1 = 0.1024 | 900 | –
18480 kPa, x1 = 0.0487 | 832 | –
18510 kPa, x1 = 0.0487 | – | 804
18530 kPa, x1 = 0.1024 | 901 | –
18580 kPa, x1 = 0.1024 | 901 | –
18610 kPa, x1 = 0.0102 | – | 808
18620 kPa, x1 = 0.0102 | 769 | –
18620 kPa, x1 = 0.1024 | 902 | –
18670 kPa, x1 = 0.0487 | 835 | 806
18690 kPa, x1 = 0.1024 | 902 | –
18750 kPa, x1 = 0.1024 | 903 | –
18810 kPa, x1 = 0.0102 | – | 813
18820 kPa, x1 = 0.0487 | – | 809
18860 kPa, x1 = 0.0102 | 773 | –
18860 kPa, x1 = 0.0487 | 837 | –
18860 kPa, x1 = 0.1024 | 904 | –
18940 kPa, x1 = 0.1024 | 905 | –
18990 kPa, x1 = 0.0487 | – | 811
19040 kPa, x1 = 0.0487 | 840 | –
